According to US10982293B2, “Methods for improving plant resistance to soybean cyst nematode and compositions thereof” (Monsanto Technology LLC, priority 2014, dated 2021):

Legend:
Type in all cases: in vivo, Heterodera glycines
SCN [1] = assay: Greenhouse trials: susceptible soybean line challenged with SCN with and without the compound (all plants with Acceleron); settings: presence vs absence of the compound, all plants treated with ACCELERON
Description: Untreated seed or seed treated only with a colorant were used as standard controls. Single soybean seed were planted in 3''×3'' pots filled with field soil mixed with sand and steam sterilized. Ten days after germination seedlings were inoculated with 2000-3000 SCN eggs isolated from cultures maintained on the appropriate soybean germplasm to maintain designated race. After inoculation, soil temperatures were maintained at 28° C. with 16-hour day-length for 28-30 days. On the last day of the incubation period, individual plants were uprooted. Cysts from each plant were collected by blasting the roots with pressurized water and washing the soil while trapping the released cysts on sieves. The collected cysts from individual plants were transferred to a counting dish. The total number of cysts from individual plants was counted under a dissecting microscope. Data is reported as the number of cysts collected from an individual pot and represent the mean of 6-8 replications. […] All plants were treated with […]® (Monsanto Company, St. Louis, Mo., USA) to reduce fungal disease.

race 2 SCN = assay: Greenhouse study: SCN cysts on roots of soybean grown from treated seed, race 2 SCN challenge; settings: seed treatment, 2000-3000 SCN eggs, cysts counted after 28-30 days, mean of 6-8 replications, FIG. 3
Description: Various soybean lines were treated with the compound 3-phenyl-5-(thiophen-2-yl)-1,2,4-oxadiazole following standard industry protocols. The structure of 3-phenyl-5-(thiophen-2-yl)-1,2,4-oxadiazole is:
Untreated seed or seed treated only with a colorant were used as standard controls. Single soybean seed were planted in 3″×3″ pots filled with field soil mixed with sand and steam sterilized. Ten days after germination seedlings were inoculated with 2000-3000 SCN eggs isolated from cultures maintained on the appropriate soybean germplasm to maintain designated race. After inoculation, soil temperatures were maintained at 28° C. with 16-hour day-length for 28-30 days. On the last day of the incubation period, individual plants were uprooted. Cysts from each plant were collected by blasting the roots with pressurized water and washing the soil while trapping the released cysts on sieves. The collected cysts from individual plants were transferred to a counting dish. The total number of cysts from individual plants was counted under a dissecting microscope. Data is reported as the number of cysts collected from an individual pot and represent the mean of 6-8 replications.
All plants were treated with ACCELERON® (Monsanto Company, St. Louis, Mo., USA) to reduce fungal disease.

[2] = system: race 1 soybean cyst nematodes; assay: Field tests: yield of treated and untreated soybean lines in race 1 SCN fields; settings: for yield, treated vs untreated: race 1 SCN
Description: Prior to planting, seeds were treated with chemistry according to standard industry protocols. Six different untreated and treated lines were planted in eight plots. The six lines were selected based on resistance reaction to race 1 and race 3 SCN. […] The levels of resistance were determined essentially as described by Schmitt, D. P. and Shannon, G., Crop Sci., 32:275-277 (1992), according to Table 4. Soil cores were collected at emergence near the root zone of the plant. Multiple soil samples were taken, combined, and crushed into small evenly-sized particles. A sample aliquot was combined with water allowed to sit, then stirred. The sample was then poured into a funnel and processed in a soil elutriator. The sample was counted, with a final number being given as eggs per 100 cc of soil. Based on the number of eggs per 100 cc of soil, the field was classified as low to high pressure, where about 0 to about 180 eggs per 100 cc of soil was considered to be low pressure, about 180 eggs to about 1100 eggs per 100 cc of soil was considered to be medium pressure, and greater than about 1100 eggs per 100 cc of soil was considered to be high pressure. Lines were planted in four medium and four high pressure fields containing race 1 soybean cyst nematodes. The medium pressure fields contained 536 eggs per 100 cc of soil while the high pressure fields contained 1645 eggs per 100 cc of soil. Yield was determined at harvest. The lines derived from Peking germplasm provided protection against race 1 SCN while the lines derived from PI88788 germplasm provided protection against race 3 SCN.

SCN [3] = assay: Field trials (43): yield of treated PI88788-derived soybean lines under moderate to high nematode pressure; settings: seed treatment 0.50 mg AI/seed with Fungicide + Insecticide (Base 2); adjusted to 13% moisture
Excerpt: Eleven different untreated and treated lines were planted in a total of 43 separate field trials with a single variety per location. The eleven lines were selected based on their resistance reactions to race 3 SCN. The eleven lines were developed from PI88788 source germplasm and display either moderate resistance or resistance to race 3 SCN. 3-Phenyl-5-(thiophen-2-yl)-1,2,4-oxadiazole was combined with commercial fungicides and insecticides in a tank slurry mix with colorant, polymer, and water at the recommended rates and allowed to mix thoroughly. Using a Gustafson continuous batch seed coater the seed batch was loaded, the treatment slurry was injected and the mixture was allowed to tumble for 35-40 seconds before being ejected into a paper storage bag. […] Sub-samples (˜ 1 pint of soil) were taken from each composite sample and placed in a plastic bag, with appropriate handling to ensure viability of nematodes, and sent to a lab for nematode quantification. […] Quantitative in-season nematode sampling using root and soil samples was conducted eight weeks after planting for trials. […] Samples were sent to a lab for nematode quantification. […] The data were calculated to represent bushels per acre by taking the grain weight over the square footage of each plot and adjusting to 13% moisture.

c1ccc(-c2noc(-c3cccs3)n2)cc1 [3-phenyl-5-(thiophen-2-yl)-1,2,4-oxadiazole]
SCN cyst counts (SCN [1]): lower SCN cyst counts
resistance to race 2 SCN (number of SCN cysts on soybean roots) (race 2 SCN): enhances resistance to race 2 SCN
yield, treated vs untreated ([2]; high pressure field, 1645 eggs per 100 cc soil, Peking-moderately resistant (Line 2) and PI88788-moderately resistant (Line 5), FIG. 6): unexpected statistically higher yield
yield, treated vs untreated ([2]; high pressure field, 1645 eggs per 100 cc soil, Peking-resistant (Line 3), PI88788-sensitive (Line 4), PI88788-resistant (Line 6)): no statistical difference
yield, treated vs untreated ([2]; high pressure field, 1645 eggs per 100 cc soil, Peking-sensitive line (Line 1)): statistically higher yield than untreated
yield advantage compared to untreated ([2]; high pressure field, average of the two moderately resistant lines): 5.8 bushel per acre
yield in field tests (legend of FIG. 6) ([2]; high race 1 SCN pressure, about 1645 SCN eggs/100 cc soil): increase in yield
yield in field tests (legend of FIG. 5) ([2]; low race 1 SCN pressure, about 536 SCN eggs/100 cc soil): increase in yield
yield, treated vs untreated ([2]; medium pressure field, 536 eggs per 100 cc soil, Peking or PI88788 sensitive, moderately resistant and resistant lines, FIG. 5): No statistical difference in yield
Average Yield (SCN [3]): 55.7 BU/A
